Data on two compounds can be found in patent US7792576B2, “Method of treatment for central nervous system injury” (Purdue Research Foundation, priority 2002, dated 2010).

Test [1] relates to retinal ganglion cells. The following applies: administered in vitro to retinal ganglion cells; U.S. Pat. No. 6,440,455 and Benowitz et al. 1999; cited from earlier work.
Test [2] deals with CTM reflex after right lateral hemisection of the spinal cord in adult guinea pig. Briefly: Behavioral recovery of the cutaneous trunci muscle (CTM) reflex after chronic spinal cord injury (Study One). The format is in vivo. From the text:
Fully adult (approximately 400 grams (g)) female guinea pigs were used in this study (Hartley Strain). They were anesthetized with ketamine/xylyzine by conventional methods (Borgens et al. (2002) J. Exp. Biol. 205, 1-12) prior to surgery, kept warm with heat lamps after surgery, and maintained individually in pens and fed ad libidum for the duration of the investigation. Animals were euthanized at the end of the study, prior to the harvesting of spinal cords for anatomical study by an overdose of the anesthesia (see Borgens et al. (2002) J. Exp. Biol. 205, 1-12).
A laminectomy procedure exposing the dorsal aspect of the spinal cord was performed on all animals between T9 and T11. A right lateral hemisection was performed (FIG. 1) using a special cutting device, and further confirmed to be “complete” (that is, leaving no spared parenchyma) by passing a sharpened pin through the cut tissue. This operation severs the entire right side of the cord from the midline to the far right border of the spinal cord forming a rostral and caudal segment. The entire left side of the spinal cord was left intact. Immediately after transection, a marker device made of surgical stainless steel was inserted into the lesion, as previously described in Borgens et al. (1986) J. Comp. Neurol 250, 168-180 and Borgens and Bohnert (1997) Exp. Neurol. 145, 376-389. […]

Test [3] deals with ascending and descending axons of transected spinal cord white matter in adult guinea pig. Kind of test: Anterograde intracellular labeling of spinal cord white matter axons: axonal projections relative to the plane of transection (Study One). The format is in vivo. The protocol: A laminectomy procedure exposing the dorsal aspect of the spinal cord was performed on all animals between T9 and T11. A right lateral hemisection was performed (FIG. 1) using a special cutting device, and further confirmed to be “complete” (that is, leaving no spared parenchyma) by passing a sharpened pin through the cut tissue. This operation severs the entire right side of the cord from the midline to the far right border of the spinal cord forming a rostral and caudal segment. The entire left side of the spinal cord was left intact. Immediately after transection, a marker device made of surgical stainless steel was inserted into the lesion, as previously described in Borgens et al. (1986) J. Comp. Neurol 250, 168-180 and Borgens and Bohnert (1997) Exp. Neurol. 145, 376-389. This device was left in situ for the duration of the study, and removed prior to histological processing. This procedure leaves a hole in the tissue, which accurately marks the exact plane of transaction even in chronic injuries many months old (FIGS. 1 and 2). The injection of various intracellular labels into guinea pig spinal cord white matter has been described in numerous previous publications. See, for example, Borgens et al. (1986) J Comp Neurol 250, 168-180 and Borgens et al. (1999) Journal of Neurotrauma 16, 639-57. Briefly, approximately 18 hours prior to the sacrifice of the animal, the spinal cord was exposed by surgery, and approximately […], of a fluorescently labeled dextran was injected using a Hamiliton syringe. The label (50% in distilled water; 10,000 Daltons) was injected deep into the parenchyma of white matter, approximately two vertebral segments rostral and caudal of the plane of transection (usually still visible, due to the indwelling marker device). A FITC conjugated dextran (“Flouro-emerald”) was injected rostral to the plane of transection, and a rhodamine-conjugated dextran (“Flouro-ruby”) was injected caudal to the plane of transaction. Thus, this anterograde double label technique marked both ascending fibers (mostly sensory afferent fibers) projecting towards the lesion from below it and descending axons (mainly motor fibers) projecting towards the lesion from above it). Longitudinal horizontal sections provided histological samples in which the entire extent of projection of a single axon often can be traced to fall short of, or regenerate to, around, or through the plane of transection. This procedure can sometimes provide dramatic examples of single unit axon degeneration and regeneration. However, it is not productive to attempt to count individual axons in longitudinal horizontal sections. Often axons take tortuous and curving trajectories, and would be counted more than once in individual histological samples. Additionally, sprouting and branching of fibers can lead to false counting relative to the extended growth from the stump of an individual severed fiber. Rather, the proportion of animals in which axons can be traced to terminate more than 250 μms from the plane of transaction (exactly identified by use of the indwelling marker), within 250 μms of the actual plane of transaction, and to cross the exact plane of transection into the adjacent segment of cord is compared. […] Images from an Olympus Van Ox microscope were obtained with an Optronics DEI-750 color video camera and captured to a PC with Adobe Twain 32 software. Table 1, below, provides the numbers of spinal cords that were injected with the intracellular label (N) and those that were lost to histology (LTH) for each of the three groups. The proportions of those cords in which marked fibers were traced to the four zones are given over the number of cords examined. Statistical Comparison between the groups is provided at the bottom of the graph (Fishers' exact two tailed test). […] Table 1 summarizes the results of anterograde filling of both ascending and descending tracts within the spinal cords of all animals in the Study One, of chronically injured animals. […]

For `Nc1nc2c(ncn2[C@@H]2O[C@H](CO)[C@@H](O)[C@H]2O)c(=O)[nH]1` [guanosine], in test [1], the axonal outgrowth entry is “stimulating axonal outgrowth”.
On to `OC[C@H]1O[C@@H](n2cnc3c(O)ncnc32)[C@H](O)[C@@H]1O` [Inosine, inosine], for which the “percent recovery of the CTM receptive field (mean)” value in test [2] (at the end of the study, chronic SCI, P=0.5 between groups (Mann Whitney)) is listed as 23.5±3.6%. Moreover, the “animals that recovered some amount of CTM behavior” value in test [2] (chronic SCI treated about 3 months after hemisection, inosine 10 mM s.c. osmotic pump 14 days, with or without OFS 4 weeks, 15 inosine, 16 inosine+OFS animals, none of 15 controls recovered) is given as 11 animals. In addition, the “Descending fibers, Zone 4: proportion of cords” value in test [3] (FITC-labeled descending fibers projecting into the adjacent segment of cord, over number of cords examined) was 1/8. In addition, in test [3] (FITC-labeled descending fibers terminating at the plane of transection, over number of cords examined), the “Descending fibers, Zone 3: proportion of cords” value was 2/8. Besides, the “Descending fibers, Zone 1 >250: cords with labeled fibers” value in test [3] (FITC-labeled descending fibers terminating more than 250 μm from the plane of transection, chronic SCI) worked out at 8. Further, the “Descending fibers, Zone 2 <250: proportion of cords” value in test [3] (FITC-labeled descending fibers within 250 μm of the plane of transection, over number of cords examined) is given as 7/8. Besides, the “Ascending fibers, Zone 4: proportion of cords” value in test [3] (rhodamine-labeled ascending fibers projecting into the adjacent segment of cord, over number of cords examined) is on record as 2/12. In addition, the “Ascending fibers, Zone 3: proportion of cords” value in test [3] (rhodamine-labeled ascending fibers terminating at the plane of transection, over number of cords examined) was 7/12. In addition, the “Ascending fibers, Zone 1 >250: cords with labeled fibers” value in test [3] (rhodamine-labeled ascending fibers terminating more than 250 μm from the plane of transection, chronic SCI) is recorded as 12. Besides, the “Ascending fibers, Zone 2 <250: proportion of cords” value in test [3] (rhodamine-labeled ascending fibers within 250 μm of the plane of transection, over number of cords examined) is 10/12. Moreover, in test [1], the axonal outgrowth result is given as “stimulating axonal outgrowth”.
